Experimental data from US20240344145A1, “PHARMACOGENOMICS SCORE TO MAKE DECISIONS ON THERAPY AUGMENTATION IN AML” (University of Florida Research Foundation, Incorporated, priority 2021, published 2024).

Test system: ara-C metabolic pathway genes
Assay: Association of ara-C pathway SNP genotypes with MRD1, EFS and OS in AML02 (logistic regression and Cox models; also within LDAC and HDAC arms)
Parameters: species or system human
Details: within arm of AML02
Source text: Genomic DNA from patients enrolled in the multi-site St. Jude AML02 trial was genotyped for 155 SNPs in 16 genes of relevance to ara-C pharmacology using sequenom iPlex platform that uses MALDI-TOF based chemistry at University of Minnesota, Biomedical Genomics Center. SNPs were selected based on previously reported studies. For SNPs lacking literature on genetic variation, SNPs were selected to capture LD blocks (European and African ancestry) on a gene. Of 155 SNPs, 1 SNP was excluded due to low call rate (<90%), 47 SNPs were excluded due to minimum allele frequency of less than 5%, 11 SNPs were excluded due to high LD (r^2>0.9) with other SNPs; two SNPs were excluded because of deviation from Hardy-Weinberg equilibrium. Genotype for the COG-AAML0531 cohort for the selected SNPs was obtained using sequenom platform or TaqMan genotyping assays, and for a few SNPs was extracted from the data available on Illumina 2.5 Omni array. Genotype calls from multiple platforms were confirmed across multiple samples randomly collected from the cohort.
SNP genotype groups in three different modes of inheritance (additive, dominant, and recessive) were tested for association with MRD1 using logistic regression models. Odds ratio (OR) and 95% confidence interval (CI) were calculated for each test. SNPs with association P-value<0.05 were considered significant. Cox-proportional hazard models were used to evaluate association of genotype groups with EFS or OS. Hazard ratio (HR) and 95% CI were calculated for each test. p-value<0.05 was considered statistically significant. Given initial risk group assignments are well-established prognostic factors associated with outcome, outcome association analysis of SNPs with and without adjusting for risk group was also performed to identify SNPs that are associated with outcome independent of risk group.
SNPs with p<0.15 in risk-adjusted univariate evaluation with clinical endpoints (MRD1, EFS, and OS) were tested for all possible combinations with a maximum of three SNPs per model in multivariable logistic regression models for association with MRD1 and Cox-proportional hazard models for association with EFS and OS. Analysis for up to 3 SNP combinations was restricted due to computational challenges as increasing the maximum number of SNPs per model drastically increases the number of models as 1000 permutations were run for each model. Models were ordered according to their Bayesian Information Criterion (BIC) and weight in favor of each model. One thousand permutation tests were performed for each model to determine statistical significance. The six unique SNPs from the most significant models for EFS and MRD1 were included in the development of the ACS10 score as described in the results section.
The multicenter AML02 clinical trial randomly assigned subjects to receive low dose ara-C (LDAC: 100 mg/m^2; n=91 patients) or high dose ara-C(HDAC: 3 g/m^2; n=75 patients) in combination with daunorubicin and etoposide as the first course of chemotherapy as described above in patient cohort section. Thus, the association of SNPs with outcome within each arm separately was also explored (Table 5).

[1] = rs4917384 (NT5C2, WT C, VAR T), MOI D
[2] = rs4980345 (SLC28A1, WT G, VAR A), MOI A
[3] = rs6552622 (DCTD, WT C, VAR G), MOI D
[4] = rs6742272 (RRM2, WT C, VAR G), MOI A
[5] = rs6834938 (DCTD, WT C, VAR T), MOI R
[6] = rs6946062 (NT5C3, WT T, VAR C), MOI D
[7] = rs7533657 (CTPS1, WT C, VAR T), MOI R
[8] = rs7543016 (CMPK1, WT C, VAR G), MOI R
[9] = rs7776847 (NT5C3, WT G, VAR A), MOI A
[10] = rs7874528 (SLC28A3, WT G, VAR T), MOI D
[11] = rs10252880 (NT5C3, WT G, VAR C), MOI A
[12] = rs10767827 (RRM1, WT G, VAR T), MOI D
[13] = rs10786736 (NT5C2, WT G, VAR C), MOI D
[14] = rs10916819 (CDA, WT A, VAR G), MOI D
[15] = rs11140525 (SLC28A3, WT G, VAR A), MOI A
[16] = rs11191558 (NT5C2, WT G, VAR A), MOI D
[17] = rs11737887 (DCTD, WT T, VAR C), MOI A
[18] = rs12554292 (SLC28A3, WT C, VAR T), MOI D
[19] = rs12806698 (RRM1, WT C, VAR A), MOI D
[20] = rs17103168 (CMPK1, WT A, VAR G), MOI D

With `Nc1ccn([C@@H]2O[C@H](CO)[C@@H](O)[C@@H]2O)c(=O)n1` [HDAC, cytarabine] the “EFS HR (95% CI)” value [1] was 0.74 (0.51-1.08), the “MRD1 OR (95% CI)” value [1] was 0.73 (0.44-1.2) and the “OS HR (95% CI)” value [1] was 0.61 (0.38-0.98). The “EFS HR (95% CI)” value [2] was 0.94 (0.47-1.87), the “MRD1 OR (95% CI)” value [2] was 0.55 (0.19-1.62) and the “OS HR (95% CI)” value [2] was 1.3 (0.64-2.64). The “EFS HR (95% CI)” value [3] was 1.71 (1.15-2.53), the “MRD1 OR (95% CI)” value [3] was 1.06 (0.56-1.99) and the “OS HR (95% CI)” value [3] was 1.84 (1.19-2.85). The “EFS HR (95% CI)” value [4] was 1.09 (0.68-1.76), the “MRD1 OR (95% CI)” value [4] was 0.86 (0.44-1.68) and the “OS HR (95% CI)” value [4] was 1.09 (0.62-1.92). The “EFS HR (95% CI)” value [5] was 0.7 (0.34-1.44), the “MRD1 OR (95% CI)” value [5] was 1.08 (0.49-2.38) and the “OS HR (95% CI)” value [5] was 0.86 (0.42-1.79). The “EFS HR (95% CI)” value [6] was 1.13 (0.78-1.63), the “MRD1 OR (95% CI)” value [6] was 0.96 (0.59-1.56) and the “OS HR (95% CI)” value [6] was 1.47 (0.92-2.35). For the same compound, the “EFS HR (95% CI)” value [7] was 1.76 (1.14-2.7), the “MRD1 OR (95% CI)” value [7] was 1.31 (0.67-2.57) and the “OS HR (95% CI)” value [7] was 1.97 (1.22-3.18). For the same compound, the “EFS HR (95% CI)” value [8] was 0.69 (0.38-1.25), the “MRD1 OR (95% CI)” value [8] was 1.29 (0.69-2.42) and the “OS HR (95% CI)” value [8] was 0.65 (0.32-1.35). The “EFS HR (95% CI)” value [9] was 0.83 (0.46-1.5), the “MRD1 OR (95% CI)” value [9] was 1.23 (0.57-2.65) and the “OS HR (95% CI)” value [9] was 0.71 (0.34-1.47). For the same compound, the “EFS HR (95% CI)” value [10] was 1.24 (0.85-1.81), the “MRD1 OR (95% CI)” value [10] was 0.91 (0.52-1.61) and the “OS HR (95% CI)” value [10] was 1.41 (0.91-2.17). For the same compound, the “EFS HR (95% CI)” value [11] was 0.99 (0.62-1.57), the “MRD1 OR (95% CI)” value [11] was 1.18 (0.62-2.27) and the “OS HR (95% CI)” value [11] was 0.74 (0.42-1.32). For the same compound, the “EFS HR (95% CI)” value [12] was 1.03 (0.71-1.49), the “MRD1 OR (95% CI)” value [12] was 0.55 (0.31-0.97) and the “OS HR (95% CI)” value [12] was 1.04 (0.68-1.61). The “EFS HR (95% CI)” value [13] was 0.92 (0.6-1.4), the “MRD1 OR (95% CI)” value [13] was 0.9 (0.51-1.59) and the “OS HR (95% CI)” value [13] was 0.92 (0.56-1.52). For the same compound, the “EFS HR (95% CI)” value [14] was 1.08 (0.75-1.56), the “MRD1 OR (95% CI)” value [14] was 1.87 (1.09-3.21) and the “OS HR (95% CI)” value [14] was 1.33 (0.83-2.12). For the same compound, the “EFS HR (95% CI)” value [15] was 0.73 (0.44-1.21), the “MRD1 OR (95% CI)” value [15] was 0.44 (0.21-0.94) and the “OS HR (95% CI)” value [15] was 0.87 (0.49-1.56). The “EFS HR (95% CI)” value [16] was 0.87 (0.56-1.37), the “MRD1 OR (95% CI)” value [16] was 0.93 (0.53-1.66) and the “OS HR (95% CI)” value [16] was 0.84 (0.48-1.44). For the same compound, the “EFS HR (95% CI)” value [17] was 0.96 (0.49-1.89), the “MRD1 OR (95% CI)” value [17] was 2.74 (1.06-7.06) and the “OS HR (95% CI)” value [17] was 0.95 (0.43-2.12). The “EFS HR (95% CI)” value [18] was 1.15 (0.75-1.76), the “MRD1 OR (95% CI)” value [18] was 1.92 (1.04-3.56) and the “OS HR (95% CI)” value [18] was 1.4 (0.87-2.24). The “EFS HR (95% CI)” value [19] was 0.64 (0.43-0.96), the “MRD1 OR (95% CI)” value [19] was 0.89 (0.54-1.45) and the “OS HR (95% CI)” value [19] was 0.62 (0.37-1.02). For the same compound, the “EFS HR (95% CI)” value [20] was 1.05 (0.73-1.51), the “MRD1 OR (95% CI)” value [20] was 0.62 (0.37-1.04) and the “OS HR (95% CI)” value [20] was 0.9 (0.58-1.41).
